Experimental data from patent publication US7517881B2, “Triazine derivatives, their preparation and therapeutic application thereof” (Aventis Pharma S.A., priority 2005, dated 2009).

Target: T1, nicotinic receptors containing the α7 subunit (Rattus norvegicus, UniProt Q05941)
T1 construct: displace the [^3H]-MLA bond on the rat hippocampus membranes; from tissue; host or cells: hippocampus of female Sprague-Dawley rats (membrane preparation)
Assay: binding to nicotinic receptors containing the α7 subunit, competition versus [3H]-methyllycaconitine on rat hippocampus membranes
Conditions: apparent affinity constant by Cheng and Prusoff, displacement of 5 nM [3H]-MLA, 2 hours at about 20° C.
Protocol: The compounds of the invention were tested for their ability to bind the nicotinic receptors containing the α7 subunit using a test of binding to preparations of rat brain membranes according to the methods described hereunder:
Frozen specimens of hippocampus from the brain of female Sprague-Dawley rats were stored at −20° C. until used. The hippocampi from 10 rats were combined and homogenized using a pulverizer of the Polytron type in 10 volumes of an ice-cooled buffer with the following composition: KCl (11 mM); KH2PO4 (6 mM); NaCl (137 mM); Na2HPO4 (8 mM); HEPES (20 mM); iodoacetamide (5 mM); EDTA (1.5 mM); PMSF (0.1 mM). The pH was adjusted to 7.4 with NaOH. […]
The binding of the compounds of the invention for receptors containing the α7 subunit was measured by competition versus [^3H]-methyllycaconitine ([^3H]-MLA), a radiolabeled tracer which recognizes the α7 receptors (Davies et al., Neuropharmacology 1999, 38, 679-690) according to conventional methods adapted to the format of 96-well plates. The ability of the compounds of the invention to displace the [^3H]-MLA bond on the rat hippocampus membranes was determined in duplicate after incubation for 2 hours at a temperature close to 20° C. […] The non-specific binding was determined in specific wells containing 10 μM of non-radiolabeled MLA. […]

T1 sequence (Q05941 23-502): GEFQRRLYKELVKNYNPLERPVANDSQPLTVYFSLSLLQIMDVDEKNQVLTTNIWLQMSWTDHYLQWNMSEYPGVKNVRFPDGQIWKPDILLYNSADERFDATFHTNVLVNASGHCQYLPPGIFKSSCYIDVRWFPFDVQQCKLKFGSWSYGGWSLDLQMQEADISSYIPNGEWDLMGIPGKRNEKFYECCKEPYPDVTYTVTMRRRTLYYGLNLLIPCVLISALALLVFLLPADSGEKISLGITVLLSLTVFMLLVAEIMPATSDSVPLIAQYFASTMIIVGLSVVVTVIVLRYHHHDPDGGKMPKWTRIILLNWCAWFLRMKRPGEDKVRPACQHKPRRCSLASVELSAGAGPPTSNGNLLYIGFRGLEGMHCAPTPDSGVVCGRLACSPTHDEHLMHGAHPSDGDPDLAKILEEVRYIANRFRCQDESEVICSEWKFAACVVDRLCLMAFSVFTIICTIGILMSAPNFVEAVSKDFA

| Ki [nM] | SMILES |
| --- | --- |
| 957 | CCN(CC)CCCNc1nnc(-c2csc3ccccc23)c(=O)[nH]1 [Compound No. 12, 6-(benzothiophen-3-yl)-3-(3-diethylaminopropylamino)-4H-1,2,4-triazin-5-one] |
| 737 | CCN(CC)CCCNc1nnc(-c2cn(-c3ccccc3)c3ccccc23)c(=O)[nH]1 [Compound No. 11, 6-(1-phenyl-indol-3-yl)-3-(3-diethylaminopropylamino)-4H-1,2,4-triazin-5-one] |
